According to the supplement of paper PMC4862054:

How the values were obtained:
Conditions in all cases: incubation time: 72 h
MDA-MB-436 [1] = test: normalised viability (% of control), CellTiter-Blue; higher = more viable cells (about 100 = DMSO control)
Outline: (§1)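 Vehicle (100) and a positive kill control (0) anchored the normalisation of each plate, and Z'-factor was used for quality control. Breast cancer cell lines in 20 µl suspension were incubated 72 h over compound in 5 µl medium in 384-well plates, followed by CellTiter-Blue at 560/590 nm. The value is normalised viability at a single listed concentration of the series.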

BT-549 [2] = test: as above
Outline: as §1

DU-4475 [3] = test: as above
Outline: as §1

MDA-MB-453 [4] = test: as above
Outline: as §1

MDA-MB-436 [5] = test: normalised viability (% of control), CellTiter-Blue; higher = more viable cells (about 100 = DMSO control); remark: listed apart in the source
Description: (§2)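 DSRT, CellTiter-Blue viability, 72 h incubation. Signal is normalised to DMSO and benzethonium chloride controls. Value is the normalised response at dose 3.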

Hs578T [6] = test: as above
Description: as §2

HCC1143 [7] = test: as above
Description: as §2

BT-549 [8] = test: as above; remark: listed apart in the source
Description: as §2

CAL-85-1 [9] = test: as above
Description: as §2

MFM-223 = test: as above
Description: as §2

CAL-120 = test: as above
Description: as §2

MDA-MB-231 [10] = test: as above
Description: as §2

DU-4475 [11] = test: as above; remark: listed apart in the source
Description: as §2

MDA-MB-468 = test: as above
Description: as §2

HCC1599 = test: as above
Description: as §2

HDQ-P1 = test: as above
Description: as §2

CAL-148 [12] = test: as above
Description: as §2

BT-474 [13] = test: as above
Description: as §2

SK-BR-3 = test: as above
Description: as §2

MDA-MB-453 [14] = test: as above; remark: listed apart in the source
Description: as §2

CAL-51 = test: as above
Description: as §2

HCC1937 [15] = test: as above
Description: as §2

Hs578T [16] = test: drug sensitivity score (DSS), CellTox Green (DSS (AUC-based score)); higher = stronger drug effect (viability inhibition or cytotoxicity); extreme values may be limits of the assay
Outline: (§3)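 Normalisation on every plate relied on 0.1 % DMSO and a positive kill control. The plates, 384-well format, held compound at 5 concentrations 10-fold apart across a compound-specific 10,000-fold range, and breast cancer cell lines in 20 µl suspension were incubated on them for 72 h before CellTox Green and then CellTiter-Glo readings. The drug sensitivity score derives from the area under the fitted dose-response curve.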

HCC1143 [17] = test: as above
Outline: as §3

CAL-85-1 [18] = test: as above
Outline: as §3

MDA-MB-231 [19] = test: as above
Outline: as §3

CAL-148 [20] = test: as above
Outline: as §3

BT-474 [21] = test: as above
Outline: as §3

HCC1937 [22] = test: as above
Outline: as §3

Oc1nc(-c2ccc(C(F)(F)F)cc2)nc2c1CSCC2 [XAV-939]
Conditions	normalised viability [%]
BT-474 [13], 100 nM	107
BT-549 [2], 10 nM	91.3
BT-549 [2], 1000 nM	94.5
BT-549 [2], 10000 nM	101
BT-549 [8], 100 nM	104
CAL-51, 10 nM	98.8
CAL-85-1 [9], 10 nM	96.3
CAL-120, 100 nM	97.2
CAL-148 [12], 10 nM	92.6
DU-4475 [3], 3 nM	117
DU-4475 [3], 30 nM	101
DU-4475 [3], 100 nM	121
DU-4475 [11], 10 nM	111
HCC1143 [7], 100 nM	77.6
HCC1599, 100 nM	116
HCC1937 [15], 100 nM	101
HDQ-P1, 10 nM	104
Hs578T [6], 100 nM	88.3
MDA-MB-231 [10], 100 nM	89.1
MDA-MB-436 [1], 10 nM	122
MDA-MB-436 [1], 1000 nM	116
MDA-MB-436 [1], 10000 nM	113
MDA-MB-436 [5], 100 nM	128
MDA-MB-453 [4], 3 nM	104
MDA-MB-453 [4], 30 nM	94.2
MDA-MB-453 [4], 100 nM	105
MDA-MB-453 [14], 10 nM	101
MDA-MB-468, 100 nM	107
MFM-223, 100 nM	96.5
SK-BR-3, 100 nM	112

Conditions	drug sensitivity score
BT-474 [21]	0
CAL-85-1 [18]	0
CAL-148 [20]	0
HCC1143 [17]	0
HCC1937 [22]	0
Hs578T [16]	3.23
MDA-MB-231 [19]	0

N[C@@H](CSC(c1ccccc1)(c1ccccc1)c1ccccc1)C(=O)O [S-trityl-L-cysteine]
Conditions	normalised viability [%]
BT-474 [13], 400 nM	109
BT-549 [2], 40 nM	83.3
BT-549 [2], 4000 nM	92.2
BT-549 [2], 40000 nM	24
BT-549 [8], 400 nM	75.4
CAL-51, 40 nM	87.4
CAL-85-1 [9], 40 nM	101
CAL-120, 400 nM	110
CAL-148 [12], 40 nM	106
DU-4475 [3], 12 nM	117
DU-4475 [3], 120 nM	92.9
DU-4475 [3], 400 nM	102
DU-4475 [11], 40 nM	99.9
HCC1143 [7], 400 nM	122
HCC1599, 400 nM	89.6
HCC1937 [15], 400 nM	81.5
HDQ-P1, 40 nM	94.1
Hs578T [6], 400 nM	92.2
MDA-MB-231 [10], 400 nM	91.7
MDA-MB-436 [1], 40 nM	90.2
MDA-MB-436 [1], 4000 nM	78.6
MDA-MB-436 [1], 40000 nM	58.2
MDA-MB-436 [5], 400 nM	98.6
MDA-MB-453 [4], 12 nM	91.7
MDA-MB-453 [4], 120 nM	80.9
MDA-MB-453 [4], 400 nM	101
MDA-MB-453 [14], 40 nM	88.8
MDA-MB-468, 400 nM	101
MFM-223, 400 nM	99.8
SK-BR-3, 400 nM	95.8

Conditions	drug sensitivity score
BT-474 [21]	0
CAL-85-1 [18]	0
CAL-148 [20]	0
HCC1143 [17]	0
HCC1937 [22]	3.46
Hs578T [16]	0
MDA-MB-231 [19]	0

C[C@@H](Oc1cc(-c2cnn(C3CCNCC3)c2)cnc1N)c1c(Cl)ccc(F)c1Cl [Crizotinib]
Conditions	normalised viability [%]
BT-474 [13], 100 nM	92.7
BT-549 [2], 10 nM	107
BT-549 [2], 1000 nM	107
BT-549 [2], 10000 nM	30.1
BT-549 [8], 100 nM	95.2
CAL-51, 10 nM	107
CAL-85-1 [9], 10 nM	93.8
CAL-120, 100 nM	96.8
CAL-148 [12], 10 nM	105
DU-4475 [3], 3 nM	94.9
DU-4475 [3], 30 nM	98.8
DU-4475 [3], 100 nM	96.2
DU-4475 [11], 10 nM	91.3
HCC1143 [7], 100 nM	95.8
HCC1599, 100 nM	99.6
HCC1937 [15], 100 nM	102
HDQ-P1, 10 nM	85
Hs578T [6], 100 nM	64.8
MDA-MB-231 [10], 100 nM	84.7
MDA-MB-436 [1], 10 nM	71.3
MDA-MB-436 [1], 1000 nM	17.1
MDA-MB-436 [1], 10000 nM	8.24
MDA-MB-436 [5], 100 nM	84.8
MDA-MB-453 [4], 3 nM	95.2
MDA-MB-453 [4], 30 nM	81.3
MDA-MB-453 [4], 100 nM	87.6
MDA-MB-453 [14], 10 nM	94.2
MDA-MB-468, 100 nM	97.7
MFM-223, 100 nM	83.4
SK-BR-3, 100 nM	59.1

Conditions	drug sensitivity score
BT-474 [21]	0
CAL-85-1 [18]	0
CAL-148 [20]	0
HCC1143 [17]	0
HCC1937 [22]	0
Hs578T [16]	0
MDA-MB-231 [19]	0
